Data published in PubChem BioAssay AID344 (DTP/NCI, 2004).
“And” between values parts separate entries of the source, which are not always exact repeats. Equal entries are not always repeated. Toxic doses and inconclusive results are not listed.

System: mice, LPC-1 plasma cell tumor ip, median survival T/C
Test: NCI In Vivo Anticancer Drug Screen. Data for tumor model Lieberman Plasma Cell No. 1 (LPC-1) (intraperitoneal) in unknown mice
Conditions: endpoint: median survival time, schedule: Q01DX028 (sc), higher = longer survival
Experimental: The antitumor activity of compounds was measured in mice bearing transplantable tumors. Survival or tumor size were measured and the results are expressed as the measurement made in the treated group (T) divided by the measurement made in the vehicle treated control group (C). The tumor model used in this assay is Lieberman Plasma Cell No. 1 (LPC-1) (intraperitoneal) in unknown mice

[1] = dose: 1.0 mg/kg/injection, vehicle: saline
[2] = dose: 2.0 mg/kg/injection, vehicle: saline
[3] = dose: 4.0 mg/kg/injection, vehicle: saline
[4] = dose: 25.0 mg/kg/injection, vehicle: carboxymethylcellulose (CMC)
[5] = dose: 50.0 mg/kg/injection, vehicle: carboxymethylcellulose (CMC)
[6] = dose: 75.0 mg/kg/injection, vehicle: carboxymethylcellulose (CMC)
[7] = dose: 100.0 mg/kg/injection, vehicle: carboxymethylcellulose (CMC)
[8] = dose: 20.0 mg/kg/injection, vehicle: carboxymethylcellulose (CMC)
[9] = dose: 40.0 mg/kg/injection, vehicle: carboxymethylcellulose (CMC)
[10] = dose: 12.5 mg/kg/injection, vehicle: carboxymethylcellulose (CMC)
[11] = dose: 33.0 mg/kg/injection, vehicle: carboxymethylcellulose (CMC)

Q: Which T/C (dose: 0.25 mg/kg/injection, vehicle: saline) does the source give for `CS(=O)(=O)OCCN(CCOS(C)(=O)=O)c1ccc(N=O)cc1` here?
A: The T/C was 105 % of control.

Q: What about the T/C (dose: 0.5 mg/kg/injection, vehicle: saline) of the same compound?
A: The T/C was 107 % of control.

Q: And the T/C [1]?
A: The T/C was 120 % of control.

Q: What about the T/C (dose: 1.8 mg/kg/injection, vehicle: saline) of the same compound?
A: Its T/C is 157 % of control.

Q: And the T/C [2]?
A: Its T/C is 102 % of control and 115 % of control.

Q: What about the T/C (dose: 2.7 mg/kg/injection, vehicle: saline) of the same compound?
A: The T/C was 121 % of control.

Q: And the T/C [3]?
A: Its T/C is 94 % of control and 100 % of control.

Q: And the T/C (dose: 6.0 mg/kg/injection, vehicle: saline)?
A: The T/C was 94 % of control.

Q: How did the T/C (dose: 3.0 mg/kg/injection, vehicle: water) turn out when `Nc1nc(=S)c2ncn(C3OC(CO)C(O)C3O)c2[nH]1` (stereo unspecified) was run?
A: Its T/C is 121 % of control.

Q: What about the T/C (dose: 5.0 mg/kg/injection, vehicle: water) of the same compound?
A: The T/C was 110 % of control.

Q: What about the T/C (dose: 8.4 mg/kg/injection, vehicle: water) of the same compound?
A: Its T/C is 110 % of control.

Q: What about the T/C (dose: 14.0 mg/kg/injection, vehicle: water) of the same compound?
A: The T/C was 100 % of control.

Q: What about the T/C (dose: 23.0 mg/kg/injection, vehicle: water) of the same compound?
A: The T/C was 100 % of control.

Q: With `NC(CSCc1ccc(N(CCCl)CCCl)cc1)C(=O)O` (stereo unspecified) as the compound, how does the T/C (dose: 3.75 mg/kg/injection, vehicle: saline) read?
A: Its T/C is 100 % of control.

Q: What about the T/C (dose: 7.5 mg/kg/injection, vehicle: saline) of the same compound?
A: The T/C was 111 % of control.

Q: And the T/C (dose: 15.0 mg/kg/injection, vehicle: saline)?
A: The T/C was 102 % of control.

Q: What about the T/C (dose: 30.0 mg/kg/injection, vehicle: saline) of the same compound?
A: Its T/C is 122 % of control.

Q: `Cn1cnc([N+](=O)[O-])c1Sc1ncnc2nc[nH]c12` was tested. Which T/C [4] did it give?
A: The T/C was 102 % of control.

Q: And the T/C [5]?
A: Its T/C is 111 % of control and 114 % of control.

Q: What about the T/C [6] of the same compound?
A: The T/C was 108 % of control.

Q: And the T/C [7]?
A: Its T/C is 108 % of control.

Q: `O=c1ccc2cc(O)c(O)cc2o1` was tested. Which T/C (dose: 31.0 mg/kg/injection, vehicle: steriod suspending solution) did it give?
A: Its T/C is 119 % of control.

Q: What about the T/C (dose: 62.0 mg/kg/injection, vehicle: steriod suspending solution) of the same compound?
A: Its T/C is 115 % of control.

Q: How did the T/C (dose: 9.38 mg/kg/injection, vehicle: carboxymethylcellulose (CMC)) turn out when `Cn1c2ccccc2c(=O)c2c(O)cc3c(c21)C=C(Br)C(C)(C)O3` was run?
A: The T/C was 97 % of control.

Q: And the T/C (dose: 18.75 mg/kg/injection, vehicle: carboxymethylcellulose (CMC))?
A: The T/C was 97 % of control.

Q: What about the T/C (dose: 37.5 mg/kg/injection, vehicle: carboxymethylcellulose (CMC)) of the same compound?
A: Its T/C is 107 % of control.

Q: What about the T/C [6] of the same compound?
A: Its T/C is 97 % of control.

Q: And the T/C (dose: 150.0 mg/kg/injection, vehicle: carboxymethylcellulose (CMC))?
A: The T/C was 95 % of control.

Q: With `COc1cc2oc(=O)ccc2cc1CC=C(C)C` as the compound, how does the T/C (dose: 25.0 mg/kg/injection, vehicle: saline) read?
A: The T/C was 100 % of control.

Q: Which results are given for `Cn1cnc([N+](=O)[O-])c1Sc1nc(N)nc2nc[nH]c12`?
A: T/C (dose: 0.5 mg/kg/injection, vehicle: carboxymethylcellulose (CMC)): 97 % of control; T/C (dose: 1.0 mg/kg/injection, vehicle: carboxymethylcellulose (CMC)): 117 % of control; T/C (dose: 4.0 mg/kg/injection, vehicle: carboxymethylcellulose (CMC)): 100 % of control

Q: For `N=C(N)SCc1c2ccccc2c(CSC(=N)N)c2ccccc12`, which T/C (dose: 2.5 mg/kg/injection, vehicle: carboxymethylcellulose (CMC)) is on record?
A: Its T/C is 97 % of control.

Q: What about the T/C (dose: 5.0 mg/kg/injection, vehicle: carboxymethylcellulose (CMC)) of the same compound?
A: Its T/C is 112 % of control.

Q: What about the T/C (dose: 10.0 mg/kg/injection, vehicle: carboxymethylcellulose (CMC)) of the same compound?
A: The T/C was 95 % of control.

Q: And the T/C [8]?
A: The T/C was 117 % of control.

Q: What about the T/C [9] of the same compound?
A: Its T/C is 115 % of control.

Q: How did the T/C (dose: 1.0 mg/kg/injection, vehicle: methylcellulose (MC)) turn out when `CCN(CC)c1ccc2cc3ccc(=[N+](CC)CC)cc-3oc2c1` was run?
A: Its T/C is 97 % of control.

Q: What about the T/C (dose: 2.0 mg/kg/injection, vehicle: methylcellulose (MC)) of the same compound?
A: Its T/C is 93 % of control.

Q: What about the T/C (dose: 4.0 mg/kg/injection, vehicle: methylcellulose (MC)) of the same compound?
A: Its T/C is 89 % of control.

Q: And the T/C (dose: 8.0 mg/kg/injection, vehicle: methylcellulose (MC))?
A: Its T/C is 87 % of control.

Q: How did the T/C (dose: 0.12 mg/kg/injection, vehicle: other) turn out when `CN(Cc1cnc2nc(N)nc(N)c2n1)c1ccc(C(=O)N[C@@H](CCC(=O)O)C(=O)O)cc1` was run?
A: The T/C was 105 % of control.

Q: And the T/C (dose: 1.0 mg/kg/injection, vehicle: other)?
A: Its T/C is 98 % of control.

Q: Which results are given for `CS(=O)(=O)OCCCCCOS(C)(=O)=O`?
A: T/C (dose: 10.0 mg/kg/injection, vehicle: water): 107 % of control; T/C (dose: 40.0 mg/kg/injection, vehicle: water): 107 % of control; T/C (dose: 44.0 mg/kg/injection, vehicle: carboxymethylcellulose (CMC)): 120 % of control

Q: Which T/C (dose: 6.3 mg/kg/injection, vehicle: carboxymethylcellulose (CMC)) does the source give for `CN(C)c1ccc(/C=C2\C=Cc3ccccc32)cc1` here?
A: The T/C was 102 % of control.

Q: And the T/C [10]?
A: The T/C was 102 % of control.

Q: And the T/C [4]?
A: Its T/C is 102 % of control.

Q: What about the T/C [5] of the same compound?
A: Its T/C is 97 % of control.

Q: And the T/C [7]?
A: Its T/C is 94 % of control.

Q: For `O=NN(CCCl)C(=O)NC1CCCCC1`, which T/C [11] is on record?
A: Its T/C is 111 % of control.

Q: And the T/C [6]?
A: Its T/C is 102 % of control.

Q: How did the T/C [8] turn out when `CS(=O)(=O)OCCN(CCOS(C)(=O)=O)c1ccc(C(=O)O)cc1` was run?
A: Its T/C is 205 % of control.

Q: And the T/C [9]?
A: Its T/C is 350 % of control.

Q: What about the T/C (dose: 55.0 mg/kg/injection, vehicle: carboxymethylcellulose (CMC)) of the same compound?
A: Its T/C is 255 % of control.

Q: What about the T/C (dose: 80.0 mg/kg/injection, vehicle: carboxymethylcellulose (CMC)) of the same compound?
A: Its T/C is 197 % of control.

Q: What about the T/C (dose: 180.0 mg/kg/injection, vehicle: carboxymethylcellulose (CMC)) of the same compound?
A: Its T/C is 105 % of control.

Q: What about the T/C (dose: 270.0 mg/kg/injection, vehicle: carboxymethylcellulose (CMC)) of the same compound?
A: Its T/C is 89 % of control.

Q: For `CC[C@H]1CN2CCc3cc(OC)c(OC)cc3[C@@H]2C[C@@H]1C[C@H]1NCCc2cc(OC)c(OC)cc21`, which T/C [1] is on record?
A: Its T/C is 106 % of control.

Q: What about the T/C [2] of the same compound?
A: The T/C was 106 % of control.

Q: What about the T/C [3] of the same compound?
A: Its T/C is 94 % of control.

Q: For `C/C(=N/N=C(N)N)c1ccc(NC(=O)Nc2ccc(/C(C)=N/N=C(N)N)cc2)cc1`, which T/C (dose: 53.0 mg/kg/injection, vehicle: carboxymethylcellulose (CMC)) is on record?
A: Its T/C is 97 % of control.

Q: What about the T/C (dose: 88.0 mg/kg/injection, vehicle: carboxymethylcellulose (CMC)) of the same compound?
A: Its T/C is 92 % of control.

Q: And the T/C (dose: 147.0 mg/kg/injection, vehicle: carboxymethylcellulose (CMC))?
A: Its T/C is 94 % of control.

Q: And the T/C (dose: 245.0 mg/kg/injection, vehicle: carboxymethylcellulose (CMC))?
A: The T/C was 97 % of control.

Q: Which results are given for `CS(=O)(=O)OCCN(CCOS(C)(=O)=O)c1ccccc1`?
A: T/C (dose: 3.12 mg/kg/injection, vehicle: carboxymethylcellulose (CMC)): 113 % of control; T/C (dose: 6.25 mg/kg/injection, vehicle: carboxymethylcellulose (CMC)): 161 % of control; T/C [10]: 155 % of control; T/C (dose: 15.0 mg/kg/injection, vehicle: carboxymethylcellulose (CMC)): 184 % of control; T/C (dose: 22.0 mg/kg/injection, vehicle: carboxymethylcellulose (CMC)): 194 % of control; T/C [4]: 105 % of control; T/C [11]: 110 % of control

Q: How did the T/C (dose: 25.0 mg/kg/injection, vehicle: steriod suspending solution) turn out when `CC(=O)O[C@]1(C(C)=O)CC[C@H]2[C@@H]3C[C@H](C)C4=CC(=O)C=C[C@]4(C)[C@@]3(F)[C@@H](O)C[C@@]21C` was run?
A: The T/C was 100 % of control.

Q: What about the T/C (dose: 50.0 mg/kg/injection, vehicle: steriod suspending solution) of the same compound?
A: Its T/C is 97 % of control.

Q: What about the T/C (dose: 75.0 mg/kg/injection, vehicle: steriod suspending solution) of the same compound?
A: Its T/C is 91 % of control.

Q: And the T/C (dose: 100.0 mg/kg/injection, vehicle: steriod suspending solution)?
A: Its T/C is 97 % of control.

Q: How did the T/C (dose: 8.4 mg/kg/injection, vehicle: saline) turn out when `CN(N=O)C(N)=O` was run?
A: Its T/C is 114 % of control.

Q: And the T/C (dose: 14.0 mg/kg/injection, vehicle: saline)?
A: The T/C was 150 % of control.

Q: What about the T/C (dose: 39.0 mg/kg/injection, vehicle: saline) of the same compound?
A: The T/C was 116 % of control.

Q: What about the T/C (dose: 65.0 mg/kg/injection, vehicle: saline) of the same compound?
A: Its T/C is 100 % of control.
